Data: the NIST ThermoML archive (doi:10.1016/j.jct.2019.03.039)
± gives the expanded uncertainty stated by the source.

Assay: mn = molality of the nth substance listed, in mol/kg
Conditions: 101.3 kPa, Liquid; for viscosity: Capillary tube (Ostwald / Ubbelohde) method; for speed of sound: Frequency=4 MHz, Linear variable-path acoustic interferometer; for mass density: Vibrating tube method

Cc1ncc(C[n+]2csc(CCO)c2C)c(N)n1.Cl.[Cl-] [thiamine hydrochloride] + O
viscosity (293.15 K, m1 = 0.0497): 1.048 ± 0.033 mPa·s
viscosity (293.15 K, m1 = 0.0502): 1.048 ± 0.033 mPa·s
viscosity (293.15 K, m1 = 0.1003): 1.071 ± 0.033 mPa·s
viscosity (293.15 K, m1 = 0.1008): 1.071 ± 0.033 mPa·s
viscosity (293.15 K, m1 = 0.1498): 1.101 ± 0.033 mPa·s
viscosity (293.15 K, m1 = 0.1505): 1.101 ± 0.033 mPa·s
speed of sound (293.15 K, m1 = 0.0497): 1490.4 ± 1.7 m/s
speed of sound (293.15 K, m1 = 0.0503): 1490.4 ± 1.7 m/s
speed of sound (293.15 K, m1 = 0.1003): 1498.5 ± 1.7 m/s
speed of sound (293.15 K, m1 = 0.1008): 1498.5 ± 1.7 m/s
speed of sound (293.15 K, m1 = 0.1498): 1507.2 ± 1.8 m/s
speed of sound (293.15 K, m1 = 0.1505): 1507.2 ± 1.8 m/s
mass density (293.15 K, m1 = 0.0497): 1003.19 ± 0.36 kg/m3
mass density (293.15 K, m1 = 0.0502): 1003.19 ± 0.36 kg/m3
mass density (293.15 K, m1 = 0.1003): 1008.06 ± 0.36 kg/m3
mass density (293.15 K, m1 = 0.1008): 1008.06 ± 0.36 kg/m3
mass density (293.15 K, m1 = 0.1498): 1013.01 ± 0.36 kg/m3
mass density (293.15 K, m1 = 0.1505): 1013.01 ± 0.36 kg/m3
viscosity (298.15 K, m1 = 0.0497): 0.9193 ± 0.032 mPa·s
viscosity (298.15 K, m1 = 0.0502): 0.9193 ± 0.032 mPa·s
viscosity (298.15 K, m1 = 0.1003): 0.954 ± 0.032 mPa·s
viscosity (298.15 K, m1 = 0.1008): 0.954 ± 0.032 mPa·s
viscosity (298.15 K, m1 = 0.1498): 0.9913 ± 0.032 mPa·s
viscosity (298.15 K, m1 = 0.1505): 0.9913 ± 0.032 mPa·s
speed of sound (298.15 K, m1 = 0.0497): 1504.1 ± 1.8 m/s
speed of sound (298.15 K, m1 = 0.0503): 1504.1 ± 1.8 m/s
speed of sound (298.15 K, m1 = 0.1003): 1512.6 ± 1.8 m/s
speed of sound (298.15 K, m1 = 0.1008): 1512.6 ± 1.8 m/s
speed of sound (298.15 K, m1 = 0.1498): 1520.8 ± 1.8 m/s
speed of sound (298.15 K, m1 = 0.1505): 1520.8 ± 1.8 m/s
mass density (298.15 K, m1 = 0.0497): 1001.99 ± 0.36 kg/m3
mass density (298.15 K, m1 = 0.0502): 1001.99 ± 0.36 kg/m3
mass density (298.15 K, m1 = 0.1003): 1006.87 ± 0.36 kg/m3
mass density (298.15 K, m1 = 0.1008): 1006.87 ± 0.36 kg/m3
mass density (298.15 K, m1 = 0.1498): 1011.77 ± 0.36 kg/m3
mass density (298.15 K, m1 = 0.1505): 1011.77 ± 0.36 kg/m3
viscosity (303.15 K, m1 = 0.0497): 0.8251 ± 0.032 mPa·s
viscosity (303.15 K, m1 = 0.0502): 0.8251 ± 0.032 mPa·s
viscosity (303.15 K, m1 = 0.1003): 0.8569 ± 0.032 mPa·s
viscosity (303.15 K, m1 = 0.1008): 0.8569 ± 0.032 mPa·s
viscosity (303.15 K, m1 = 0.1498): 0.8892 ± 0.032 mPa·s
viscosity (303.15 K, m1 = 0.1505): 0.8892 ± 0.032 mPa·s
speed of sound (303.15 K, m1 = 0.0497): 1516.7 ± 1.8 m/s
speed of sound (303.15 K, m1 = 0.0503): 1516.7 ± 1.8 m/s
speed of sound (303.15 K, m1 = 0.1003): 1524.1 ± 1.8 m/s
speed of sound (303.15 K, m1 = 0.1008): 1524.1 ± 1.8 m/s
speed of sound (303.15 K, m1 = 0.1498): 1532.7 ± 1.8 m/s
speed of sound (303.15 K, m1 = 0.1505): 1532.7 ± 1.8 m/s
mass density (303.15 K, m1 = 0.0497): 1000.56 ± 0.36 kg/m3
mass density (303.15 K, m1 = 0.0502): 1000.56 ± 0.36 kg/m3
mass density (303.15 K, m1 = 0.1003): 1005.44 ± 0.36 kg/m3
mass density (303.15 K, m1 = 0.1008): 1005.44 ± 0.36 kg/m3
mass density (303.15 K, m1 = 0.1498): 1010.29 ± 0.36 kg/m3
mass density (303.15 K, m1 = 0.1505): 1010.29 ± 0.36 kg/m3
viscosity (308.15 K, m1 = 0.0497): 0.7565 ± 0.032 mPa·s
viscosity (308.15 K, m1 = 0.0502): 0.7565 ± 0.032 mPa·s
viscosity (308.15 K, m1 = 0.1003): 0.7753 ± 0.032 mPa·s
viscosity (308.15 K, m1 = 0.1008): 0.7753 ± 0.032 mPa·s
viscosity (308.15 K, m1 = 0.1498): 0.8015 ± 0.032 mPa·s
viscosity (308.15 K, m1 = 0.1505): 0.8015 ± 0.032 mPa·s
speed of sound (308.15 K, m1 = 0.0497): 1526.9 ± 1.8 m/s
speed of sound (308.15 K, m1 = 0.0503): 1526.9 ± 1.8 m/s
speed of sound (308.15 K, m1 = 0.1003): 1533.7 ± 1.8 m/s
speed of sound (308.15 K, m1 = 0.1008): 1533.7 ± 1.8 m/s
speed of sound (308.15 K, m1 = 0.1498): 1542.5 ± 1.8 m/s
speed of sound (308.15 K, m1 = 0.1505): 1542.5 ± 1.8 m/s
mass density (308.15 K, m1 = 0.0497): 998.93 ± 0.36 kg/m3
mass density (308.15 K, m1 = 0.0502): 998.93 ± 0.36 kg/m3
mass density (308.15 K, m1 = 0.1003): 1003.79 ± 0.36 kg/m3
mass density (308.15 K, m1 = 0.1008): 1003.79 ± 0.36 kg/m3
mass density (308.15 K, m1 = 0.1498): 1008.62 ± 0.36 kg/m3
mass density (308.15 K, m1 = 0.1505): 1008.62 ± 0.36 kg/m3
viscosity (313.15 K, m1 = 0.0497): 0.6772 ± 0.032 mPa·s
viscosity (313.15 K, m1 = 0.0502): 0.6772 ± 0.032 mPa·s
viscosity (313.15 K, m1 = 0.1003): 0.7057 ± 0.032 mPa·s
viscosity (313.15 K, m1 = 0.1008): 0.7057 ± 0.032 mPa·s
viscosity (313.15 K, m1 = 0.1498): 0.7388 ± 0.032 mPa·s
viscosity (313.15 K, m1 = 0.1505): 0.7388 ± 0.032 mPa·s
speed of sound (313.15 K, m1 = 0.0497): 1535.5 ± 1.8 m/s
speed of sound (313.15 K, m1 = 0.0503): 1535.5 ± 1.8 m/s
speed of sound (313.15 K, m1 = 0.1003): 1542.8 ± 1.8 m/s
speed of sound (313.15 K, m1 = 0.1008): 1542.8 ± 1.8 m/s
speed of sound (313.15 K, m1 = 0.1498): 1551.1 ± 1.8 m/s
speed of sound (313.15 K, m1 = 0.1505): 1551.1 ± 1.8 m/s
mass density (313.15 K, m1 = 0.0497): 997.193 ± 0.36 kg/m3
mass density (313.15 K, m1 = 0.0502): 997.193 ± 0.36 kg/m3
mass density (313.15 K, m1 = 0.1003): 1002 ± 0.36 kg/m3
mass density (313.15 K, m1 = 0.1008): 1002 ± 0.36 kg/m3
mass density (313.15 K, m1 = 0.1498): 1006.76 ± 0.36 kg/m3
mass density (313.15 K, m1 = 0.1505): 1006.76 ± 0.36 kg/m3

O [water] + Cc1ncc(C[n+]2csc(CCO)c2C)c(N)n1.Cl.[Cl-]
viscosity (293.15 K, m2 = 0): 1.002 ± 0.032 mPa·s
viscosity (298.15 K, m2 = 0): 0.8906 ± 0.032 mPa·s
viscosity (303.15 K, m2 = 0): 0.7975 ± 0.032 mPa·s
viscosity (308.15 K, m2 = 0): 0.7193 ± 0.032 mPa·s
speed of sound (308.15 K, m2 = 0): 1519.3 ± 1.8 m/s
mass density (308.15 K, m2 = 0): 994.059 ± 0.36 kg/m3
viscosity (313.15 K, m2 = 0): 0.6531 ± 0.032 mPa·s
speed of sound (313.15 K, m2 = 0): 1528.7 ± 1.8 m/s

O [water] + N=C(N)NCCC[C@H](N)C(=O)O
viscosity (293.15 K, m2 = 0): 1.002 ± 0.032 mPa·s
viscosity (298.15 K, m2 = 0): 0.8906 ± 0.032 mPa·s
viscosity (303.15 K, m2 = 0): 0.7975 ± 0.032 mPa·s
viscosity (308.15 K, m2 = 0): 0.7193 ± 0.032 mPa·s
speed of sound (308.15 K, m2 = 0): 1519.3 ± 1.8 m/s
mass density (308.15 K, m2 = 0): 994.059 ± 0.37 kg/m3
viscosity (313.15 K, m2 = 0): 0.6531 ± 0.032 mPa·s
speed of sound (313.15 K, m2 = 0): 1528.7 ± 1.8 m/s

O [water] + N[C@@H](CO)C(=O)O
viscosity (293.15 K, m2 = 0): 1.002 ± 0.032 mPa·s
viscosity (298.15 K, m2 = 0): 0.8906 ± 0.032 mPa·s
viscosity (303.15 K, m2 = 0): 0.7975 ± 0.032 mPa·s
viscosity (308.15 K, m2 = 0): 0.7193 ± 0.032 mPa·s
speed of sound (308.15 K, m2 = 0): 1519.3 ± 1.8 m/s
mass density (308.15 K, m2 = 0): 994.059 ± 0.37 kg/m3
viscosity (313.15 K, m2 = 0): 0.6531 ± 0.032 mPa·s
speed of sound (313.15 K, m2 = 0): 1528.7 ± 1.8 m/s
